Patent US20070248590A1, “Modulators of CDC2-like kinases (CLKS) and methods of use thereof” (Sirtris Pharmaceuticals, Inc., priority 2005, published 2007)

Key:
HDAC = conditions: in vitro or in vivo, literature; cited from earlier work
[1] = test system: insulin induction of CLK2 alternate splicing in FAO cells; test: CLK2 splicing analysis (RT-PCR with primers flanking exon 4) in FAO cells; format: cell-based, rat; conditions: 20 μM inhibitor pretreatment
Procedure: Splicing Analysis. Total RNA was isolated from FAO hepatocytes pre-treated with indicated inhibitor then Insulin for 2 hours. RT-PCR was performed using SuperScript One-Step RT-PCR with taq (Invitrogen) on 1 ug of total RNA using primers flanking exon 4 on Clk2 and Clk1.

[2] = test system: PGC-1alpha and SIRT1 phosphorylation in H2.35 cells; test: Metabolic 32P PO4 labeling of H2.35 cells, insulin stimulated; format: cell-based, mouse; conditions: 30 minutes pretreatment, 40 minute insulin stimulation
Procedure: PGC-1alpha and SIRT1 phosphorylation in vivo is stimulated by insulin and blocked by LY and TG003 as determined by metabolic ^32P PO4 labeling of H2.35 cells infected with adenovirus Flag-Ha-PGC-1alpha or Flag-HA-SIRT1. Cells were infected for 24 hours low glucose DMEM 4% FBS then serum starved for 24 hours in low glucose DMEM 0.5% BSA. Media was then replaced with PO4 free DMEM 0.5% BSA for 30 minutes, and cells were then pretreated with LY or TG003 for 30 minutes before addition of 100 uCi ^32P PO4. Cells were incubated in ^32P PO4 for 20 minutes before a 40 minute insulin stimulation. Cells were then washed with ice-cold PBS, harvested and lysed. Flag-HA-PCC-1alpha and Flag-HA-SIRT1 were immunoprecipitated used anti-flag agarose (Sigma-Aldrich, Cat. #A4596). Immunoprecipitates were washed extensively and analyzed by SDS-PAGE, transferred to PVDF membrane where ^32P signal was analyzed by a Bio-Rad Phosphor-Imager (Bio-Rad Laboratories) (FIG. 20A) and normalized to protein quantitated by western blot using anti-flag antibodies by a Versa-Doc camera system and quantitation software (Bio-Rad Laboratories) (FIG. 20B).

[3] = test system: CLK2 phosphorylation of Sirt1 in HEK 293 cells; test: Metabolic 32P labeling of Flag-HA-Sirt1 in transfected HEK 293 cells; format: cell-based, human; conditions: 40 uM TG003
Procedure: (§1) Cell Culture. HEK 293 Cells were cultured in DMEM+10% CCS. FAO Rat hepatocytes were grown in Hamm's F-12 media with 5% FBS. Prior to experiments or adenoviral infections media was switched to RPMI+0.5% BSA. H2.35 Mouse Hepatocytes were grown in DMEM (low glucose)+4% FBS and 2 μM Dexamethasome. Prior to experiments and infection, media was switched to DMEM (low glucose)+0.5% BSA. CLK inhibitor, TG003 (CalBiochem) was dissolved in DMSO.
(§2) Immunoprecipitation and Co-Immunoprecipitation. Cells were washed once with PBS containing Phosphatase inhibitors (5 mM Glycerol-2-phosphate, 20 mM NaF, and 0.2 mM Na OrthoVanadate), scraped into tubes, spun down, and lysed by 2× freeze-thaw cycles in 0.4% Triton, 100 mM NaCl, 20 mM KHepes pH 7.9, 1 mM EDTA, Phosphatase inhibitors, 1 mM PMSF, and 1× Protease Inhibitors (Roche). Immunoprecipitations were performed with M2 anti-flag agarose (sigma) or Anti-HA agarose (Roche) for 2 hours rotating at 4 degrees C. followed by 3 washes in lysis buffer. Products were resolved by SDS-PAGE and transferred to PVDF membranes for Western blot analysis.
Metabolic Labeling. HEK 293 were transfected as described above. […] Immunoprecipitates were resolved by SDS-PAGE and transferred to PVDF membrane, ^32PO4 was detected by exposing membrane to Phospho-imaging screen and followed by Western-Blot using anti-flag antibodies (M2, Sigma).

[4] = test system: diet-induced obese (DIO) C57BL/6 mice; test: IP dosing of TG003 in DIO mouse model; format: in vivo
Procedure: Specifically, 5 week old C57BL/6 mice (male 18-22 grams, Charles River Labs, Willmington, Mass.) are placed either on a high fat diet (Research Diets Inc., New Brunswick, N.J., 60% kcal fat Rodent Diet Cat#D12492) or regular chow. Mice are weighed once a week for 5 weeks, test baseline fed glucose, lactate, triglycerides and insulin. At approximately 6 weeks or when mean weight of the DIO groups reach 40 grams, dosing is initiated. TG003 was dosed via IP injection at either 30 or 100 mg/kg (TG003 suspended in 2% HPMC+0.2% DOSS as in previous example). Control DIO and chow fed animals were dosed with IP injection of vehicle alone. Once dosing starts data collections was as follows: Week 1 time point includes a fasted blood glucose measurement, Week 2 blood collection, Week 3 an IPGTT and Week 4 is an endpoint blood and tissue collection.
Mice are dosed at the same time daily. Body weights are taken 2 times a week once dosing starts. Baseline measurements of fed glucose, lactate, triglycerides and insulin are taken at time 0 (commencement of dosing).
Insulin Assay: Mouse insulin levels were measured using the Linco Rat/Mouse Insulin ELISA kit (Cat. #EZRMI-13K). 0 week, 2 week and 4 week blood insulin levels are shown in FIGS. 27A, 27B and 27C respectively for 100 mg/kg TG003 study. 0 week, 2 week and 4 week blood insulin levels are shown in FIGS. 31A, 31B and 31C respectively for 30 mg/kg TG003 study.
IPGTT: Mice are fasted for a minimum of 16 hrs. A glucose reading is taken at time Zero using a glucose meter. Mice are injected with 2 g/kg D-Glucose at one minute time points. A glucose reading is taken at 15, 30, 60, and 120 minutes (Medisense Precision Extra, Blood Glucose Meter, Abbott Cat# 70297-01).

[5] = test system: PEPCK mRNA expression in FAO hepatocytes; test: Pepck mRNA by Q-RT-PCR in FAO hepatocytes; format: cell-based, rat; conditions: 20 uM TG003 for 7 hours
Procedure: Cells were grown in F-12+5% FBS then switched to 10% FBS and treated with or without 20 uM TG003 for 7 hours. Total RNA was isolated using Trizol (Invitrogen, Cat. # 15596-026) and reverse transcribed using oligo dT and super script II (Inivtrogen, Cat. # 18064-014). Pepck mRNA was measured by Q-RT-PCR relative to 36B4 control mRNA. Each bar is average+/−stdev N=3.
Cells were serum starved O/N and then treated with or without 200 nM Insulin for 2 hours. Total RNA was isolated using Trizol (Invitrogen, Cat. # 15596-026) and reverse transcribed using oligo dT and super script II (Inivtrogen, Cat. # 18064-014). Pepck mRNA was measured by Q-RT-PCR relative to 36B4 control mRNA. Each bar is average+/−stdev N=3.

[6] = test system: total phosphorylation of PGC-1alpha and Sirt1 in FAO cells; test: Metabolic 32P labeling of PGC-1alpha and Sirt1 in FAO hepatocytes; format: cell-based, rat; conditions: 40 μM TG003
Procedure: as §1
Metabolic Labeling. HEK 293 were transfected as described above. The next morning cells were switched to DMEM without PO4+10% CCS for 30 minutes, cells were then treated with or without TG003 for 30 minutes then 200 μCi of ^32PO4 was added for 2 hours. Cells were harvested and immunoprecipitation was performed as described above. Immunoprecipitates were resolved by SDS-PAGE and transferred to PVDF membrane, ^32PO4 was detected by exposing membrane to Phospho-imaging screen and followed by Western-Blot using anti-flag antibodies (M2, Sigma).
FAO Hepatocytes were infected with adenovirus as indicated in the figures for 2 days in RPMI+0.5% BSA. Metabolic labeling was performed as described above, except cells were incubated in ^32PO4 for 4 hours.

[7] = test system: CLK2 repression of PGC-1alpha coactivation of HNF4alpha; test: gAF1-luciferase (HNF4alpha response element) reporter assay in HEK 293 cells; format: cell-based, human; conditions: 20 μM TG003
Procedure: Transient Transfections. HEK 293 were transfected using PolyFect (Qiagen). 25 ng of reporter (gAF1-Luciferase) and 25 ng of pcDNA mouse HNF4-alpha were transfected with pcDNA mouse PGC-1 alpha and pcDNA Flag-CLK2. Equal amounts of total DNA were used for all transfections by adding appropriate amounts of empty vector pcDNA. TG003 (Calbiochem) was added 4 hours after transfection and cells were harvested the next morning. The data presented is the average of 3 replicates from a single experiment, all luciferase experiments were performed at least 3 times with similar results.

[8] = test system: gluconeogenic genes (PGC-1alpha targets) in FAO hepatocytes; test: Northern blot of PGC-1alpha target genes in FAO hepatocytes; format: cell-based, rat
Procedure: Northern Blot and RNA analysis. FAO hepatocytes were infected with indicated adenovirus overnight in RPMI+0.5% BSA. Cells were grown for 2 more days in RPMI+0.5% BSA. Cells were treated as indicated. Total RNA was isolated using Trizol (Invitrogen). Northern blots using indicated cDNAs were performed on 15 μg of total RNA. Quantitation of RNA was performed by exposing membranes to phosphor-imager screens and analyzed by a Bio-Rad Personal Imager FX and Quantity-One quantitation software (Bio-Rad).

[9] = test system: diet-induced obese (DIO) C57BL/6 mice; test: Oral dosing of TG003 in DIO mouse model; format: in vivo
Procedure: Twenty 9 week old C57BL/6 mice were placed on 60% kcal % fat diet (high fat diet with 60% of calories from fat; Research Diets, Inc., New Brunswick, N.J. Cat. No. D12492) and 15 mice were placed on regular chow. Mice were weighed once a week for 5 weeks, baseline fed glucose, triglycerides and insulin was measured. At approximately 6 weeks on the high fat diet, or when the average body weight of the DIO mice becomes 40 grams, dosing began at various doses and preparations. Mice were dosed daily with either vehicle (2% HPMC+0.2% DOSS) or with TG003 suspended in vehicle and dosed via oral gavage at 100 mg/kg (10 animals each in DIO group; 9 animals in vehicle chow group and 6 animals in TG003 chow group). The study was divided into DIO groups with mean average body weight/cage. Chow fed groups were also sorted by mean average body weight/cage. Body weights were measured once weekly to adjust dosing concentrations for body weight.
Baseline blood on all mice for glucose, triglycerides, insulin, etc. was taken following a one hour food withdrawal. Once dosing started, data collections were as follows: Week 1 time point included fasted blood glucose and body temps for select groups, Week 2 was a fed blood collection, Week 3 fasted blood glucose, Week 4 body temps on select groups and endpoint blood and tissue collection. Body temperature of select groups post dosing on week 1 and week 4 was also taken. Concentration of TG003 compound is adjusted to proper dose according to the mean weight for each group weekly. Final blood collection of all groups was taken 1 hour after dosing in order to determine levels of drug in blood compared to original PK. Mice were not dosed on the day of week 2 blood collections. Mice are typically dosed in the a.m. and only dosed in the p.m. on a day following a 16 hr fast. A test for Free Fatty Acids is done with the plasma final blood collection and with final plasma collection. Assays were done as described above for TG003 IP dosing example.

[10] = test system: CLK2 interaction with Sirt1 in HEK 293 cells; test: Co-immunoprecipitation of endogenous Sirt1 with Flag-CLK2 in HEK 293 cells; format: cell-based; conditions: HEK 293 cells transfected with Flag-CLK2
Procedure: as §2

[11] = systemic intraperitoneal delivery, DIO mice, 30 or 100 mg/kg
[12] = FAO hepatocytes overexpressing PGC-1alpha, increasing amounts of TG003

O=C(/C=C/c1cccc(C(=O)NO)c1)NO [CBHA, m-carboxy-cinnamic acid bishydroxamic acid]
inhibition of HDAC (HDAC): micromolar concentration or lower

O=c1cc(N2CCOCC2)oc2c(-c3ccccc3)cccc12 [LY]
insulin induction of CLK2 alternate splicing (truncated transcript) [1]: blocks
insulin-stimulated PGC-1alpha phosphorylation [2]: blocked
insulin-stimulated SIRT1 phosphorylation [2]: blocked

depudecin
inhibition of HDAC (HDAC): micromolar concentrations

CCN1/C(=C/C(C)=O)Sc2ccc(OC)cc21 [TG003, (Z)-1-(3-ethyl-5-methoxy-2,3-dihydrobenzothiazol-2-ylidene) propan-2-one]
incorporation of 32phosphate into Flag-HA-Sirt1 WT [3]: noticeably decreased
shift in Sirt1 mobility caused by overexpression of CLK2 [3]: abrogated
drug remaining at injection site upon sacrifice ([4]; IP dosing, multiple injections): observed in the intraperitoneal cavity
blood glucose levels [4, 11]: decrease
blood insulin levels [4, 11]: decrease
body weight [4, 11]: decrease
Pepck mRNA relative to 36B4 [5]: induction
insulin induction of CLK2 alternate splicing (truncated transcript) [1]: blocks
total phosphorylation of PGC-1alpha (32phosphate relative to protein levels) [6]: decreased
total phosphorylation of Sirt1 (32phosphate relative to protein levels) [6]: decreased
CLK2 repression of PGC-1 alpha (luciferase activity) [7]: partially rescues
induction of G6Pase [8, 12]: seen in a dose dependent manner
induction of Pepck [8, 12]: seen in a dose dependent manner
CLK2 repression of PGC-1alpha induction of gluconeogenic genes (G6Pase, Pepck) ([8]; FAO hepatocytes, 40 μM TG003 for 1 hour then Fsk+Dex): rescued
in vivo effect on body weight seen with IP dosing ([9]; 100 mg/kg oral dosing): did not repeat
fed insulin ([9]; 100 mg/kg oral vs vehicle, 2 week, DIO or chow groups): not much of an effect
fed blood glucose ([9]; 100 mg/kg oral vs vehicle, 4 week, DIO or chow groups): not much of an effect
body temperature ([9]; DIO animals, 100 mg/kg oral, 1 week of dosing): significant drop
drop in body temperature ([9]; DIO animals, 100 mg/kg oral, 4 weeks of dosing): > 2 degree
body temperature ([9]; chow fed group, 100 mg/kg oral): no significant effect
mobility of Sirt1 co-immunoprecipitated with CLK2 [10]: shifted to a band with faster mobility
insulin-stimulated PGC-1alpha phosphorylation [2]: blocked
insulin-stimulated SIRT1 phosphorylation [2]: blocked

C/C=C1\NC(=O)[C@H]2CSSCC/C=C/[C@H](CC(=O)N[C@H](C(C)C)C(=O)N2)OC(=O)[C@H](C(C)C)NC1=O [Depsipeptide]
inhibition of HDAC (HDAC): micromolar concentrations

trichostatin A [TSA]
inhibition of HDAC (HDAC): potent inhibitor
